Source: US20250041286A1, “CANCER TREATMENT USING KETOTIFEN IN COMBINATION WITH A CHECKPOINT INHIBITOR” (Materia Therapeutics Inc., priority 2021, published 2025)

Assays:
MCA205 tumors = test: Ketotifen pretreatment with doxorubicin / anti-PD-L1, tumor growth; assay type: in vivo, mouse; conditions: anti-PD-L1 10 mg/kg, doxorubicin 5 mg/kg i.p. days 7, 10, 13, ketotifen 10 mg/kg daily
From the text: Daily ketotifen continued until completion of doxorubicin-anti-PD-L1 combination treatment.

MCA205 cells = test: Re-challenge of long-term survivors with MCA205 cells; assay type: in vivo, mouse; conditions: re-challenge with 2.5×10^5 MCA205 cells s.c., 80 days after resection of primary tumors
From the text: Since doxorubicin has potential to establish favorable immunogenic conditions within the TME, which could affect the efficacy of immunotherapy, it was investigated if this immune response is preserved against rechallenge of long-term survivors with the same cell line. Mice were considered long-term survivors if no tumor was detected 80 days after surgical resection of MCA205 primary tumors. Five long-term survivors from each treatment group were further re-challenged with 2.5×10^5 MCA205 cells injected subcutaneously into the flank region. Cells were prepared in 50 μl of PBS. Naïve mice were implanted in parallel as controls.

murine MC/9 MCs = test: MC/9 - NIH3T3 transwell co-culture, mast cell degranulation by β-hexosaminidase release; assay type: cell-based; conditions: 24 hours treatment, then 30 minute sensitization with C48/80
Experimental: (§1) Given that both MCs and fibroblasts are present in the TME, the consequences of MC activation on myofibroblasts was explored using a co-culture assay in which murine MC/9 MCs and NIH3T3 myofibroblasts were separated by a transwell chamber with micropores that only allowed chemical communication (FIG. 13A). In this system, degranulation efficiency was determined by measuring the concentration of β-hexosaminidase (β-hex) in the supernatant. MC degranulation was induced through exposure to compound 48/80 (C48/80), which binds to the MRGPRB2 receptor (the orthologue of the human G-protein-coupled receptor MRGPRX2). […] Co-cultures treated with a vehicle control and Triton X-100 were used as internal assay control to evaluate background and maximum β-hex release, respectively. Transforming growth factor (TGF)-β1 was used as a fibroblast activator due to its capacity to induce a myofibroblast phenotype of the NIH3T3 cells. MC/9 cells were cultivated with NIH3T3 cells for 24 hours and then treated with either ketotifen or TGFβ for additional 24 hours in low serum medium, followed by a 30 minute sensitization with C48/80.

NIH3T3 cells = test: Myofibroblast differentiation in co-culture, αSMA and collagen I immunofluorescence; assay type: cell-based, murine
Experimental: as §1
To further explore the MC-fibroblast interaction, the differentiation process of NIH3T3 cells in the co-culture system was monitored by assaying levels of αSMA and collagen I, which are two markers of the myofibroblast phenotype, by immunofluorescence staining (FIG. 13C, FIG. 13D, and FIG. 13E).

| Compound | tumor growth (relative growth, tumor mass day 16) (MCA205 tumors) | tumor development after re-challenge (mice out of five long-term survivors per group) (MCA205 cells) | MC degranulation (β-hex release) (murine MC/9 MCs) | αSMA and collagen I protein expression (NIH3T3 cells; TGFβ alone) | αSMA and collagen I protein expression (NIH3T3 cells; TGFβ together with activated MCs) |
| --- | --- | --- | --- | --- | --- |
| COc1cccc2c1C(=O)c1c(O)c3c(c(O)c1C2=O)C[C@@](O)(C(=O)CO)C[C@@H]3O[C@H]1C[C@H](N)[C@H](O)[C@H](C)O1 [doxorubicin] | Neither anti-PD-L1 nor doxorubicin monotherapies affected tumor growth | four mice |  |  |  |
| TGFβ: fibroblast activator inducing a myofibroblast phenotype of the NIH3T3 cells |  |  | did not affect MC degranulation | no change was observed | significant increase |
